Laboratory results as given in ChEMBL document CHEMBL4028801, “A multifactorial approach to hepatobiliary transporter assessment enables improved therapeutic compound development” (Toxicol Sci, 2013).
Values belong to the compound of their own block, whether it stands above or below them. Non-standard residues stand in square brackets, D forms with d. Residues, ends and D or L forms follow the SMILES beside them. dPhe(4-Cl) = N[C@H](Cc1ccc(Cl)cc1)C(=O)O; d2Nal = N[C@H](Cc1ccc2ccccc2c1)C(=O)O; dCit = NC(=O)NCCC[C@@H](N)C(=O)O; d3Pal = N[C@H](Cc1cccnc1)C(=O)O

Columns and labels:
[1] = Ratio of drug concentration at steady state in human at 25 to 50 mg, po QD after 24 hrs to IC50 for human MRP4 overexpressed in Sf9 insect cells; type: ADME, organism-based; details: in vivo
[2] = AUC in human at 25 to 50 mg, po QD after 24 hrs; type: ADME, organism-based; details: in vivo
[3] = molecular target: ATP-binding cassette sub-family C member 3 (Homo sapiens, UniProt O15438); experiment: Inhibition of human MRP3 overexpressed in Sf9 insect cell membrane vesicles assessed as uptake of [3H]-estradiol-17beta-D-glucuronide in presence of ATP and GSH measured after 10 mins by membrane vesicle transport assay; type: ADME, cell-based
[4] = molecular target: Bile salt export pump (Homo sapiens, UniProt O95342); experiment: Inhibition of human BSEP overexpressed in Sf9 cell membrane vesicles assessed as uptake of [3H]-taurocholate in presence of ATP measured after 15 to 20 mins by membrane vesicle transport assay; type: ADME, cell-based
[5] = molecular target: T1, ATP-binding cassette sub-family C member 4 (Homo sapiens, UniProt O15439); experiment: Inhibition of human MRP4 overexpressed in Sf9 cell membrane vesicles assessed as uptake of [3H]-estradiol-17beta-D-glucuronide in presence of ATP and GSH measured after 20 mins by membrane vesicle transport assay; type: ADME, cell-based
T1 sequence (O15439 whole entry): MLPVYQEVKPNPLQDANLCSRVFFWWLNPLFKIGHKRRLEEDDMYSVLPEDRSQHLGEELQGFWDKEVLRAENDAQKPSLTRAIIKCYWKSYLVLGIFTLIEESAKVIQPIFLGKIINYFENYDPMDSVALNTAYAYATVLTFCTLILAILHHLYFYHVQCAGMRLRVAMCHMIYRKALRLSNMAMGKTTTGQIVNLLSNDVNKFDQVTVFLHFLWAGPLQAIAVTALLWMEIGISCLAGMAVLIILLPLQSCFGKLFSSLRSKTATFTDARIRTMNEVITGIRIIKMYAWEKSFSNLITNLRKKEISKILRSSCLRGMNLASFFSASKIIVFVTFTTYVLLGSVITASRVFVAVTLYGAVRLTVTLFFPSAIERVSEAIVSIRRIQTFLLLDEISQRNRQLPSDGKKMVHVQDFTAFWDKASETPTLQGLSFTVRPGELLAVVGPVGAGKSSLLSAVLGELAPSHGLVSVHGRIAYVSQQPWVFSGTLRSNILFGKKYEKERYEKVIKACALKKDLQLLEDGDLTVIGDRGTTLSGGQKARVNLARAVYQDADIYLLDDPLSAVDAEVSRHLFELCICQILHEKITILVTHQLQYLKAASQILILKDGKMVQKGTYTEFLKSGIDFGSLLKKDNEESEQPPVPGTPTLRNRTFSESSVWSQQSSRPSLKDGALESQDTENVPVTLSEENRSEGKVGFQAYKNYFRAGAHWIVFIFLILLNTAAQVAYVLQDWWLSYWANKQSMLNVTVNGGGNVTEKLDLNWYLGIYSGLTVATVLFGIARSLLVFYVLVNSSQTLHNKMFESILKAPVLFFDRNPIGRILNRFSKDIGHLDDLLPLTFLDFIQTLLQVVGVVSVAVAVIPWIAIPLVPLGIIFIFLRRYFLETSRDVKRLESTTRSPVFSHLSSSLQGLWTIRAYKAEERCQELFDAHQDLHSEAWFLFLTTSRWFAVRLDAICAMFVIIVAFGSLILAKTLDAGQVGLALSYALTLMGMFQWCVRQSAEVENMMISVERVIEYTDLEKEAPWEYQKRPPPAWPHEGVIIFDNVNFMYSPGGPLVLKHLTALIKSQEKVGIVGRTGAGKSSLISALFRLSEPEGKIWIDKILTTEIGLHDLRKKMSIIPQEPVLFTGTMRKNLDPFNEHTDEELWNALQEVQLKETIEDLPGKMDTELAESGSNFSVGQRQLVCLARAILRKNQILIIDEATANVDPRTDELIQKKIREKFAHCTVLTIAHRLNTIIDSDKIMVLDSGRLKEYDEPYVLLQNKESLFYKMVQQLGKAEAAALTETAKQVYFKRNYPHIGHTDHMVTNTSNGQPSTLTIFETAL

[6] = Drug concentration at steady state in human at 25 to 50 mg, po QD after 24 hrs; type: ADME, organism-based; details: in vivo, read-out: Css
[7] = Ratio of drug concentration at steady state in human at 25 to 50 mg, po QD after 24 hrs to IC50 for human BSEP overexpressed in Sf9 insect cells; type: ADME, organism-based; details: in vivo
[8] = Ratio of drug concentration at steady state in human at 3 mg, po after 24 hrs to IC50 for human BSEP overexpressed in Sf9 insect cells; type: ADME, organism-based; details: in vivo
[9] = Ratio of drug concentration at steady state in human at 3 mg, po after 24 hrs to IC50 for human MRP4 overexpressed in Sf9 insect cells; type: ADME, organism-based; details: in vivo
[10] = Drug concentration at steady state in human at 3 mg, po QD after 24 hrs; type: ADME, organism-based; details: in vivo, read-out: Css
[11] = AUC in human at 3 mg, po QD after 24 hrs; type: ADME, organism-based; parameters: time < 24 hr, dose 3 mg, route oral; details: in vivo
[12] = Ratio of drug concentration at steady state in human at 1 to 4 mg, po QD after 24 hrs to IC50 for human MRP4 overexpressed in Sf9 insect cells; type: ADME, organism-based; details: in vivo
[13] = AUC in human at 1 to 4 mg, po QD after 24 hrs; type: ADME, organism-based; details: in vivo
[14] = Ratio of drug concentration at steady state in human at 1 to 4 mg, po QD after 24 hrs to IC50 for human BSEP overexpressed in Sf9 insect cells; type: ADME, organism-based; details: in vivo
[15] = Drug concentration at steady state in human at 1 to 4 mg, po QD after 24 hrs; type: ADME, organism-based; details: in vivo, read-out: Css
[16] = Ratio of drug concentration at steady state in human at 1 to 4 mg, po QD after 24 hrs to IC50 for human MRP3 overexpressed in Sf9 insect cells; type: ADME, organism-based; details: in vivo
[17] = AUC in human at 0.25 mg, sc QD after 24 hrs; type: ADME, organism-based; parameters: dose 0.25 mg, time < 24 hr, route subcutaneous; details: in vivo
[18] = molecular target: ATP-binding cassette sub-family C member 2 (Homo sapiens, UniProt Q92887); experiment: Inhibition of human MRP2 overexpressed in Sf9 cell membrane vesicles assessed as uptake of [3H]-estradiol-17beta-D-glucuronide in presence of ATP and GSH measured after 20 mins by membrane vesicle transport assay
[19] = tested on: Homo sapiens; experiment: Drug concentration at steady state in human 3 mg, sc administered as single dose during early to mild follicular phase after 24 hrs; type: ADME, organism-based; details: in vivo
[20] = tested on: Homo sapiens; experiment: Ratio of drug concentration at steady state in human at 0.25 mg, sc QD after 24 hrs to IC50 for human BSEP overexpressed in Sf9 insect cells; type: ADME, organism-based; details: in vivo
[21] = Drug concentration at steady state in human at 0.25 mg, sc QD after 24 hrs; type: ADME, organism-based; details: in vivo, read-out: Css
[22] = tested on: Homo sapiens; experiment: Ratio of drug concentration at steady state in human at 3 mg, sc administered as single dose during early to mild follicular phase after 24 hrs to IC50 for human BSEP overexpressed in Sf9 insect cells; type: ADME, organism-based; details: in vivo
[23] = AUC in human at 3 mg, sc administered as single dose during early to mild follicular phase after 24 hrs; type: ADME, organism-based; parameters: dose 3 mg, time < 24 hr, route subcutaneous; details: female, in vivo

Bile salt export pump, sequence (O95342 whole entry): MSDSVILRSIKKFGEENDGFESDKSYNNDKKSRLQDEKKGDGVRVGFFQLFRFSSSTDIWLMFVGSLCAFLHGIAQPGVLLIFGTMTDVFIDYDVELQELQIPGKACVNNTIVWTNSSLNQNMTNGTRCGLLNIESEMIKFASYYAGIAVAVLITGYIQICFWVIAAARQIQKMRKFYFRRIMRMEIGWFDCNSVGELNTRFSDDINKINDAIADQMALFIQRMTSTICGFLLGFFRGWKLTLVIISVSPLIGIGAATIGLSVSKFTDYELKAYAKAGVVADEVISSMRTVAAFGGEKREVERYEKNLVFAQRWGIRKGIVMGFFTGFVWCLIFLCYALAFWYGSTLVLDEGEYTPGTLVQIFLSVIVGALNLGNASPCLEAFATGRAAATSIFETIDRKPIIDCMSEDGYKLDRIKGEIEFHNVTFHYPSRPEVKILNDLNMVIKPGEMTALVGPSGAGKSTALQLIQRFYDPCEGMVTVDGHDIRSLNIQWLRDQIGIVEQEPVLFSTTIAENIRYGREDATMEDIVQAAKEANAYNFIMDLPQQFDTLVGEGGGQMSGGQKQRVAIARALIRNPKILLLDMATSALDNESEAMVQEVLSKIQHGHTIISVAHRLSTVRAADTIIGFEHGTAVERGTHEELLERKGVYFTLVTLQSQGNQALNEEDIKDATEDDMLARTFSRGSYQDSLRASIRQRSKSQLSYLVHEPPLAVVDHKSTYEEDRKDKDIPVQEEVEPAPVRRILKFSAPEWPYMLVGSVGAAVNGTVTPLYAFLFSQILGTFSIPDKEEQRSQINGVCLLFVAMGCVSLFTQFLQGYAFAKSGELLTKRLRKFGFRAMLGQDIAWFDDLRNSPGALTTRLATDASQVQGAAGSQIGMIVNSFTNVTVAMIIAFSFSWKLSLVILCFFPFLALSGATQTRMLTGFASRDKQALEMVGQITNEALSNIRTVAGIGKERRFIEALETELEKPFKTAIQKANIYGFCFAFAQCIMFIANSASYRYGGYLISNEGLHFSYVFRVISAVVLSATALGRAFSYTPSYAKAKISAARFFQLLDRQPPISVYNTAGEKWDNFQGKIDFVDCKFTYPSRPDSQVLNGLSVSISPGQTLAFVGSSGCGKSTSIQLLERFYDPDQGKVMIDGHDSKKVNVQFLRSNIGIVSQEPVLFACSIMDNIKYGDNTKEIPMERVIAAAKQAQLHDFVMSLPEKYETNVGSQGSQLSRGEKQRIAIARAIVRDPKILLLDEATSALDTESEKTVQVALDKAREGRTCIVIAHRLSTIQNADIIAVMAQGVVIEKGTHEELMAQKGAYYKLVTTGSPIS
ATP-binding cassette sub-family C member 3, sequence (O15438 whole entry): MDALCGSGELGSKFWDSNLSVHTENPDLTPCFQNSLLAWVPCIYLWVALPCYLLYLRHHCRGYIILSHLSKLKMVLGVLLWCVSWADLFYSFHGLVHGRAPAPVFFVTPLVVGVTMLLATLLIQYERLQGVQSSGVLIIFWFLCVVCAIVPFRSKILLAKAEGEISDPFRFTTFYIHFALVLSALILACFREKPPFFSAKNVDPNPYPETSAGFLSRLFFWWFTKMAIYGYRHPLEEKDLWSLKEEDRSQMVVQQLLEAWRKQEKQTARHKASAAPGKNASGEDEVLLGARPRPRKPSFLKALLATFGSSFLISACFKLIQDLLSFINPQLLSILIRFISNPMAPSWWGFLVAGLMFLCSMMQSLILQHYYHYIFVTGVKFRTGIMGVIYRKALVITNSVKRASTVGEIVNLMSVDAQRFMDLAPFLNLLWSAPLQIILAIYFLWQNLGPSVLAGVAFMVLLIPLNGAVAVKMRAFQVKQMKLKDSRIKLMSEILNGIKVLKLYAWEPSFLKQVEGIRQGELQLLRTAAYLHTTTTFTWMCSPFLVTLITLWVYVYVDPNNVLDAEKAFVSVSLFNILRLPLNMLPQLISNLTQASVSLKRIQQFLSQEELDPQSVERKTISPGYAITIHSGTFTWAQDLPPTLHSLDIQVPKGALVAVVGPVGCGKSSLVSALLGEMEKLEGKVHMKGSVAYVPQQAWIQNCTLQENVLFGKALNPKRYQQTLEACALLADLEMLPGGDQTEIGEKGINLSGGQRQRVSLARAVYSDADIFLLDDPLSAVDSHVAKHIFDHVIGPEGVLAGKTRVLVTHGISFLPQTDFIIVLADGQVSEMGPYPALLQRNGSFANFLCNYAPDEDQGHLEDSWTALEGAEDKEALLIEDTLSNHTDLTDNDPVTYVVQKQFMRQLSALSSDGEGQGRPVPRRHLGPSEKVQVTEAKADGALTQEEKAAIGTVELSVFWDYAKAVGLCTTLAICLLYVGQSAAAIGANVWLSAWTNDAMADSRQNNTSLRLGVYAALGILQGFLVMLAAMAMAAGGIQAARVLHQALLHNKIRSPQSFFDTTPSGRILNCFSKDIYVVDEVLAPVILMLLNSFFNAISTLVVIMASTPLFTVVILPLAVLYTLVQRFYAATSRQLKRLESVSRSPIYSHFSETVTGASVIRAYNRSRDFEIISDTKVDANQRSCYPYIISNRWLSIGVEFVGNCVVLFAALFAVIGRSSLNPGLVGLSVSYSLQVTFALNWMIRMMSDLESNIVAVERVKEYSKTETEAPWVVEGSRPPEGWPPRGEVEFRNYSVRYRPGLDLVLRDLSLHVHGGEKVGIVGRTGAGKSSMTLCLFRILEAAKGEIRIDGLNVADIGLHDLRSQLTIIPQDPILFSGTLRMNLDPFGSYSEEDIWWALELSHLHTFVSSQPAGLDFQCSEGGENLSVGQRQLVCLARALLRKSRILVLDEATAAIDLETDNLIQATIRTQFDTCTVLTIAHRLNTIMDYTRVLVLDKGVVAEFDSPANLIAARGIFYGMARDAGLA
ATP-binding cassette sub-family C member 2, sequence (Q92887 whole entry): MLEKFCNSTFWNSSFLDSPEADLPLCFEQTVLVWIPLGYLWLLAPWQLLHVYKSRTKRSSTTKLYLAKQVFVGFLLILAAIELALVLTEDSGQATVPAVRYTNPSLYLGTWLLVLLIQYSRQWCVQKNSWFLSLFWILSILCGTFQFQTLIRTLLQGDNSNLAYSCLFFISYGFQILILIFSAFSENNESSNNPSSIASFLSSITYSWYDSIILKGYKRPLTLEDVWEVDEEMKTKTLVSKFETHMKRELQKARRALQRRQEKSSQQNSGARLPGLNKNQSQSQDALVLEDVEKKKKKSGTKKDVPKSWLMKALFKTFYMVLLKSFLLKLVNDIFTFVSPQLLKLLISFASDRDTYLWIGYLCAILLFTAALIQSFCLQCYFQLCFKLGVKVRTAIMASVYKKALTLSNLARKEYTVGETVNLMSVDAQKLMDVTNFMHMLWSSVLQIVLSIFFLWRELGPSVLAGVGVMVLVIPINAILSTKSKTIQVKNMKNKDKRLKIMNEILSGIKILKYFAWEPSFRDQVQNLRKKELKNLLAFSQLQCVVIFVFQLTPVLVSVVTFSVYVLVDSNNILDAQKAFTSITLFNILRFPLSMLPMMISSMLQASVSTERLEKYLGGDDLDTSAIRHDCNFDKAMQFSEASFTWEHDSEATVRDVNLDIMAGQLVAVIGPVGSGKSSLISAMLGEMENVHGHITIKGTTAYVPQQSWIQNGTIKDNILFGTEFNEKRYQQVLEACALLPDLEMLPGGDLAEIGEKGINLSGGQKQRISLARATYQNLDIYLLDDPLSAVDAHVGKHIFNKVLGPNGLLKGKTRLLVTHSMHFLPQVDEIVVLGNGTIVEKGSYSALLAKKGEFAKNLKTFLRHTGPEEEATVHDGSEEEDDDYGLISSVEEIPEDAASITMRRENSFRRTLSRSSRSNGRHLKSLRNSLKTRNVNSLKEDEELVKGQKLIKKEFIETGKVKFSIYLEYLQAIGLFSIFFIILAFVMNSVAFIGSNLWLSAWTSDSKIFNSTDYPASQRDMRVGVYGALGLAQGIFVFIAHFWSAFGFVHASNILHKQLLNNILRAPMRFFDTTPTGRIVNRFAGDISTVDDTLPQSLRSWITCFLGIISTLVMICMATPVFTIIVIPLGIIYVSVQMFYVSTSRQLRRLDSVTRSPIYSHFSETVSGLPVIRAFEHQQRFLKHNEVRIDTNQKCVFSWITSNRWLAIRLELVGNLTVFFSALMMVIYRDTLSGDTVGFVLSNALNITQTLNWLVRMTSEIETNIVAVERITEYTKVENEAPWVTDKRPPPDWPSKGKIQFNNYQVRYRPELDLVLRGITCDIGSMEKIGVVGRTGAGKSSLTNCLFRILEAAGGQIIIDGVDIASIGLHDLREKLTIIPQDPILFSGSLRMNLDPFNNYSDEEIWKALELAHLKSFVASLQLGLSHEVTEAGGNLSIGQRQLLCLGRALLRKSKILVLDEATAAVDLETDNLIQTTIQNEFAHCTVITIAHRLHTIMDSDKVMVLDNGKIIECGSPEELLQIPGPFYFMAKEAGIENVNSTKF

- Ratio [1]: 0.005
- AUC at 24 h [2]: 6.13 µM·h
- IC50 [3]: > 133 µM
- IC50 [5]: 49 µM
- concentration at 24 h [6]: 255 nM
Compound: COc1cc(C)c(/C=C/C(C)=C/C=C/C(C)=C/C(=O)O)c(C)c1C [ACITRETIN]
- IC50 [4]: 38.2 µM
- Ratio [7]: 0.007

- Ratio [9]: 0.002
- IC50 [3]: > 133 µM
- concentration at 24 h [10]: 91 nM
- AUC at 24 h [11]: 2.18 µM·h
- IC50 [5]: 37.9 µM
Compound: C[C@]12CCC(=O)C=C1[C@@H]1C[C@@H]1[C@H]1[C@@H]3[C@@H]4C[C@@H]4[C@@]4(CCC(=O)O4)[C@@]3(C)CC[C@@H]12 [DROSPIRENONE]
- Ratio [8]: 0.006
- IC50 [4]: 16.4 µM

- Ratio [12]: 0.002
- IC50 [3]: 6.39 µM
- IC50 [5]: 64 µM
- AUC at 24 h [13]: 3.4 µM·h
- concentration at 24 h [15]: 141 nM
- Ratio [16]: 0.022
Compound: CCC1=C(C)CN(C(=O)NCCc2ccc(S(=O)(=O)NC(=O)N[C@H]3CC[C@H](C)CC3)cc2)C1=O [GLIMEPIRIDE]
- Ratio [14]: 0.009

Compound: CC(=O)N[C@H](Cc1ccc2ccccc2c1)C(=O)N[C@H](Cc1ccc(Cl)cc1)C(=O)N[C@H](Cc1cccnc1)C(=O)N[C@@H](CO)C(=O)N[C@@H](Cc1ccc(O)cc1)C(=O)N[C@H](CCCNC(N)=O)C(=O)N[C@@H](CC(C)C)C(=O)N[C@@H](CCCNC(=N)N)C(=O)N1CCC[C@H]1C(=O)N[C@H](C)C(N)=O.CC(=O)O [CETRORELIX ACETATE] (Ac-[d2Nal][dPhe(4-Cl)][d3Pal]SY[dCit]LRP[dA]-NH2)
- AUC at 24 h [17]: 0.375 µM·h
- IC50 [18]: > 133 µM
- IC50 [3]: > 133 µM
- Css [19]: 16 nM
- IC50 [4]: 1.47 µM
- Ratio [20]: 0.011
- concentration at 24 h [21]: 16 nM
- Ratio [22]: 0.011
- IC50 [5]: > 133 µM
- AUC at 24 h [23]: 0.375 µM·h
